From patent US20090325857A1, “USE OF OPIOID RECEPTOR ANTAGONISTS” (priority 2006, published 2009)

Key:
Type in all cases: cell-based, human
[1] = system: hair follicle melanocytes; test: Proliferation of hair follicle melanocytes (direct cell counting, hemocytometry); details: hair follicle cells, baseline = 100%
Procedure: (§1) Melanocytes are isolated and cultured either from hair follicles or epidermal skin derived from a normal adult scalp biopsy. Follicular and epidermal melanocytes are passaged in T25 plastic culture flasks to maximum 4th to maximize in vivo-like behavior. Cells are seeded into flasks and after 2 days are incubated with test substances added to the cell growth medium. The experimental set-up includes flasks in which the cells are either not treated (control) or incubated for 4 days with the appropriate amount of opioid antagonists, to assess the effect on melanin production.
(§2) Furthermore, the hair follicle cells were analysed for their proliferation and dentricity. Proliferation has been assessed by direct cell counting using hemocytometry. Cell dendricity has been assessed by phase contrast microscopy with representative photo documentation. It can be seen that the opioate receptor antagonists also have an effect on the proliferation and dentricity further supporting the use of the opiate receptor antagonists for the prevention of the graying of hair and/or for restoration and/or maintenance of the natural hair color

[2] = system: hair follicle melanocytes; test: Dendricity of hair follicle melanocytes (phase contrast microscopy); details: hair follicle cells, baseline = 100%
Procedure: as §1, §2

[3] = system: hair follicle melanocytes (HFM); test: Melanin content in hair follicle melanocytes (HFM); details: 4 days incubation, baseline = 100%
Text: Particularly, the activity of an agent in blocking an opioid receptor can be further determined by measuring the efficacy of the agent to cause a substantial increase of the total intracellular melanin production in human primary follicular melanocytes.
The effect of opioid antagonists on melanin production in hair follicular melanocytes can be measured in a cell-based in vitro assay.
as §1, with “cultured” for “cultured either”, “follicles” for “follicles or epidermal skin”, “Follicular” for “Follicular and epidermal”
(§3) After 4 days incubation, control and treated cells are collected and melanin is extracted from lysed cells. Melanin is quantified by measuring the spectrophotometric OD at 475 nm and calculating against a standardized curve. The resulting value is standardized against the number of cells counted per treatment and is given as micrograms of melanin per million cells.
as §1
as §3, with “million cells. As control known melanin production inducing references IBMX and full medium are used.” for “million cells.”

[4] = system: epidermal melanocytes (EM); test: Melanin content in epidermal melanocytes (EM); details: 4 days incubation, baseline = 100%
Procedure: as §1
as §3, with “million cells. As control known melanin production inducing references IBMX and full medium are used.” for “million cells.”

Row | Molecule | Proliferation of melanocytes ([1]; concentration not given) [%] | Dentricity ([2]; concentration not given) [%] | Melanin content in HFM ([3]; concentration not given) [%] | Proliferation of melanocytes ([1]; 1 μM) [%] | Dentricity ([2]; 1 μM) [%] | Melanin content in EM ([4]; 1 μM) [%] | Melanin content in EM ([4]; 100 μM) [%] | Melanin content in HFM ([3]; 1 μM) [%] | Melanin content in HFM ([3]; 100 μM) [%] | Dentricity ([2]; 100 μM) [%]
1 | CC(C)Cn1c(=O)n(C)c(=O)c2[nH]cnc21 [IBMX] | 140 | 148 | 140 | – | – | – | – | – | – | –
2 | C=CCN1CC[C@]23c4c5ccc(O)c4O[C@H]2/C(=N/N=C2\CC[C@@]4(O)[C@H]6Cc7ccc(O)c8c7[C@@]4(CCN6CC=C)[C@H]2O8)CC[C@@]3(O)[C@H]1C5 [Naloxonazine] | – | – | – | 109 | 105 | 40 | 25 | 120 | 242 | –
3 | C=CCN1CC[C@]23c4c5ccc(O)c4O[C@H]2C(=O)CC[C@@]3(O)[C@H]1C5 [Naloxone] | – | – | – | 123 | 110 | 61 | 54 | – | – | 104
4 | beta endorphin (YGGFMTSEKSQTPLVTLFKNAIIKNAYKKGE; Beta-endorphin; UniProt P01189 237-267, looked up) [μ-opiate agonist] | – | – | 92 | – | – | – | – | – | – | –
